Measurements taken from article PMC12718261, “New Fluorescent Synthetic Retinoids as Potential RAR Agonists with Anticancer, Molecular Docking and ADME Assessments” (Journal of Fluorescence, 2025).
Values joined by “and” are separate entries in the source; they are usually repeats but may differ in a detail not shown here. Equal entries are not always repeated.

Assays:
Assay type in all cases: cell-based
[1] = test system: total ATPase in Caco-2 cells; assay: Total ATPase activity, malachite green colorimetric; settings: Caco-2, IC50 dose, 24 h; 0.1% DMSO control normalized to 100%
Method: (§1) The total activity of ATPase and calcium-independent ATPase activity was quantified colorimetrically as described by our previous protocol. […] The inorganic phosphate (Pi) liberated after the hydrolysis of ATP by ATPase enzymes was complexed into a colored product in one step after the addition of a mixed reagent containing malachite green, ammonium molybdate, and polyvinyl alcohol (2:1:1). The intensity of absorbance at 630 nm was measured using the BioTek 800 TS absorbance plate reader (USA) and was directly proportional to the quantity of liberated Pi. In order to eliminate any color due to the non-enzymatic hydrolysis of ATP, control reactions were made using only ATP in the reaction buffer, and the absorbance intensity was then subtracted from the readings of the samples and standards.

IL-10 in Caco-2 cells = assay: Intracellular IL-10 ELISA; settings: Caco-2, IC50 dose, 24 h, vs DMSO control
Method: For IL-10. Moreover, IL-6 measurements and cell pellets were lysed using RIPA buffer, and the total lysate was collected. The total protein was estimated to use commercially available ELISA kits as per the manufacturer’s instructions. ELISA plates were coated and used for analysis according to the previously used protocol using capture antibody (IL-6, Cat. No.: RAB0307 [57] and IL-10, Cat. No.: RAB1060 [58]), followed by blocking using 5% BSA in PBS-Tween buffer for 1 h. After incubating with samples for 2 h, a secondary […] antibody was added and kept for incubation for 2 h. Streptavidin-HRP reagent was then added to the plates, followed by the addition of TMB solution. Finally, the reaction was stopped using 2 N H2SO4, and the color was measured using the BioTek 800 TS absorbance plate reader (USA) at 450 nm wavelengths, and the protein was quantified.

Caco-2 cancer cells [2] = assay: Cell cycle assay PI staining flow cytometry; settings: Caco-2, IC50 dose, 24 h
Method: The standard protocol used in HSBR was performed. […] Cells were concentrated at 1500 xg and suspended in 50 μg/ml propidium iodide (PI) staining solution and 20 µg/ml RNaseA to identify cells with a sub-G1 DNA content. Cytoflex flow cytometer (Beckman Coulter, USA) was used, and CytExpert software (version 2.4.0.28) was employed for data analysis. The gating strategy used to eliminate doublets depends on plotting the population against a 2D contour plot in four quadrants, referred to as Q1(LL), Q2 (LR), Q3 (UL), and Q4 (UR), that illustrates the spread of the Annexin-FITC-H core cell population against PI PE-H.

MCF-7 = assay: MTT anti-proliferative assay; settings: Homo sapiens, MCF7; MCF-7, MTT, 24 h, mean ± SEM
Method: (§2) The antiproliferation and cytotoxicity were assessed using 3-(4,5-dimethylthiazol-2-yl)−2,5-diphenyltetrazolium bromide (MTT, Serva) colorimetric assay. All tested cancer cell lines were seeded at a density of 20,000 cells per well in 96-well plates and allowed to adhere overnight. The attached cells were treated with five serial dilutions (100, 50, 5, 0.5, and 0.1 μM) in triplicate. These concentrations were prepared by diluting the stock solutions with serum-free culture media. The negative control cells were those treated with 0.1% DMSO solvent alone. The treated cells were handled in reduced light and maintained under standard culture growth conditions for 24 h. After the incubation period, MTT powder was prepared as a stock solution (5 mg/mL), and 20 μL of the MTT working reagent (final concentration 0.5 mg/mL) was added to each well. This was followed by incubation with MTT reagent for 4 h in a humidified atmosphere (37 °C, 5% CO2) with subsequent addition of 150 μL of DMSO solubilizing solvent and incubation for 20 min. The absorbance of solubilized violet formazan crystals was measured at 570 nm with a Biotek 800 TS microplate reader. IC50 was calculated as the concentration of retinoid that produced 50% cell growth inhibition. For cytotoxicity assessment, WI-38 normal human fibroblast cells were used for the calculation of SI, which is the ratio of IC50 retinoid (WI-38)/IC50 retinoid (cancer cell line).

Caco-2 = assay: MTT anti-proliferative assay; settings: Homo sapiens; Caco-2, MTT, 24 h, mean ± SEM
Method: as §2

HepG-2 = assay: MTT anti-proliferative assay; settings: Homo sapiens, HepG2; HepG-2, MTT, 24 h, mean ± SEM
Method: as §2

HCT-116 = assay: MTT anti-proliferative assay; settings: Homo sapiens; HCT-116, MTT, 24 h, mean ± SEM
Method: as §2

MDA-MB231 = assay: MTT anti-proliferative assay; settings: Homo sapiens, MDA-MB-231, 24 h, mean ± SEM
Method: as §2

PC-3 = assay: MTT anti-proliferative assay; settings: Homo sapiens; PC-3, MTT, 24 h, mean ± SEM
Method: as §2

Caco-2 cancer cells [3] = assay: Apoptosis assay Annexin V/PI flow cytometry; settings: Caco-2, IC50 dose, 24 h, AV/PI
Method: The standard protocol used in HSBR was performed. […] Cells were rinsed with 1 mL of binding buffer; the cells were again suspended in phosphate-buffered saline (PBS) (Lonza). 100 µL of cell suspension was incubated with 1 µL of FITC-labeled Annexin-V and 5 µL of PI for 15 min at 4 °C in the dark. The suspension was then mixed with 400 µL of ice-cold binding buffer, and each sample's apoptotic cells were analyzed using a Cytoflex flow cytometer (Beckman Coulter, USA), and CytExpert software (version 2.4.0.28) was employed for data analysis.

[4] = test system: CRABPI gene in Caco-2 cells; assay: Gene expression RT-qPCR; settings: Caco-2, IC50 dose, 24 h, relative to 0.1% DMSO, normalized to GAPDH
Method: (§3) The gene expression analysis was performed using real-time quantitative PCR (RT-qPCR), as previously documented. After incubation, cells were harvested, and total RNA was extracted using the Favor-PrepTM Blood/Cultured Cell Total RNA Purification Mini kit (Favorgen Biotech Corp., Ping-Tung, Taiwan). The purified RNA was then reverse transcribed into the first-strand cDNA using the Revert Aid First-Strand cDNA Synthesis Kit (Thermo Scientific, Waltham, MA, USA). All qPCR reactions were carried out using the […] SYBR® Green qPCR Kit (Willowfort, Nottingham, UK). Differential gene expression was performed using the 2ˆ^−ΔΔCT method utilizing GAPDH as a reference gene.

[5] = test system: Caspase-3 gene in Caco-2 cells; assay: Gene expression RT-qPCR; settings: Caco-2, IC50 dose, 24 h, relative to 0.1% DMSO, normalized to GAPDH
Method: as §3

[6] = test system: Cyt-C gene in Caco-2 cells; assay: Gene expression RT-qPCR; settings: Caco-2, IC50 dose, 24 h, relative to 0.1% DMSO, normalized to GAPDH
Method: as §3

[7] = test system: RAR-γ gene in Caco-2 cells; assay: Gene expression RT-qPCR; settings: Caco-2, IC50 dose, 24 h, relative to 0.1% DMSO, normalized to GAPDH
Method: as §3

[8] = test system: WI-38 normal human fibroblast cells; assay: MTT cytotoxicity assay on normal fibroblasts; settings: WI-38 normal fibroblast cells, 24 h, mean ± SEM
Method: as §2

[9] = test system: calcium-independent ATPases in Caco-2 cells; assay: Calcium-independent ATPase activity, malachite green colorimetric; settings: Caco-2, IC50 dose, 24 h; 0.1% DMSO control normalized to 100%
Method: as §1

[10] = test system: different cancer cell lines; assay: MTT anti-proliferative assay, whole panel statements; settings: 24 h, read-out: IC50 across different cancer cell lines
Method: as §2, with “For cytotoxicity assessment, WI-38 normal human fibroblast cells were used for the calculation of SI, which is the ratio of IC50 retinoid (WI-38)/IC50 retinoid (cancer cell line).” left out

[11] = test system: RAR-α, RAR-β, RAR-γ proteins in Caco-2 cells; assay: Western blotting of RAR proteins; settings: Caco-2, IC50 dose, 24 h, normalized to β-actin
Method: Using the previously outlined protocol, the western blot technique was used to determine the expression of RAR-α (Cat. No. E6Z6 K, cell signaling, USA), RAR-β (Cat. No. PP-H4338-00, R&D systems, USA) and RAR- γ (Cat. No. D3 A4, cell signaling, USA) in Caco-2 cells. […] Following incubation, floating adhered cells were separated and lysed. The Caco-2 cell lysate was immediately collected, subjected to sonication, and centrifuged for 15 min at 12,000 × g. The total soluble protein content was measured colorimetrically using the PierceTM 660 nm Assay (Thermo Scientific, Waltham, MA, USA) after the resultant supernatant was separated. The Gel documentation system (Geldoc-it, UVP, England) was applied for data analysis using Totallab analysis software (Ver.1.0.1) (ww.totallab.com).

SMILES | total ATPase activity [1] [%] | intracellular IL-10 level change (IL-10 in Caco-2 cells) | % G0-G1 (Caco-2 cancer cells [2]) [%] | % G2M (Caco-2 cancer cells [2]) [%] | % S (Caco-2 cancer cells [2]) [%] | % SubG0-G1 (Caco-2 cancer cells [2]) | IC50 (MCF-7) [µM] | IC50 (Caco-2) [µM] | IC50 (HepG-2) [µM] | IC50 (HCT-116) [µM] | IC50 (MDA-MB231) [µM] | IC50 (PC-3) [µM] | % Early apoptotic cells (LR) (Caco-2 cancer cells [3]) | % Late apoptotic cells (UL) (Caco-2 cancer cells [3]) [%] | % Necrotic cells (UR) (Caco-2 cancer cells [3]) | % Viable cells (LL) (Caco-2 cancer cells [3]) [%] | caspase-3 gene expression fold change [5] | Cyt-C gene expression fold change [6] | IC50 [8] [µM] | ca+2-independent ATPase activity [9] [%] | other results
COC(=O)c1ccc2cc(-c3ccc4c(c3)CCCN4)ccc2c1 [Compound 3a, Methyl 6-(1,2,3,4-tetrahydroquinolin-6-yl)−2-naphthoate] | 43.9 | additional significant reduction | 23.90 ± 8.4 | 2.41 ± 0.3 | 4.13 ± 1.2 | 70.02% and 70.02 ± 4.7 % | 13.8 ± 2.4 | 9.58 ± 1.1 | 6.37 ± 1 | 10.2 ± 3.8 | 2.33 ± 0.6 | 18.9 ± 4 | 47.37 ± 3.9 % | 0.30 | 51.38 ± 3.6 % | 0.95 | 8.5 ± 0.4 fold | did not show any overexpression | 39.2 ± 4.7 | 40.0 | CRABPI gene expression fold change [4]: 2.4 ± 0.1 fold; RAR-γ gene expression fold change [7]: 4.5 ± 0.2 fold
COC(=O)c1ccc2cc(-c3ccc4c(c3)CCCO4)ccc2c1 [Compound 3b, Methyl 6-(chroman-6-yl)−2-naphthoate] | 41 |  | 19.65 ± 2.7 | 1.74 ± 0.1 | 3.31 ± 1.1 | 75.62% and 75.62 ± 7.4 % | 12.2 ± 3.2 | 14.4 ± 0.36 | 12 ± 2.6 | 52.9 ± 4.3 | 2.09 ± 0.1 | 4.6 ± 1.7 | 60.06 ± 5.4 % | 0.49 | 37.78% and 37.78 ± 2.7 % | 1.68 ± 0.1 | did not show any significant increase | did not show any overexpression | 29.2 ± 2.1 | 36.2 | IC50 [10]: ≤ 50 µM; CRABPI gene expression fold change [4]: 9.9 ± 0.4 fold; RAR-γ gene expression fold change [7]: 2.4 ± 0.1 fold
O=C(O)c1ccc2cc(-c3ccc4c(c3)CCCN4)ccc2c1 [Compound 4a, 6-(1,2,3,4-tetrahydroquinolin-6-yl)−2-naphthoic acid] | 23.7 | did not show any significant reduction | 18.77 ± 4.8 | 2.26 ± 0.4 | 3.53 ± 1.3 | 75.83% and 75.83 ± 6.4 % | 64.8 ± 5.4 | 47.3 ± 6.2 | 53 ± 4.9 | 133 ± 6.8 | 2.42 ± 1.3 | 2.78 ± 0.3 | 23.44% and 23.44 ± 2.3 % | 0.37 | 75.13% and 75.13 ± 6.8 % | 1.06 ± 0.1 | did not show any significant increase | did not show any overexpression | 43.7 ± 4.2 | 13.9 | RAR protein expression (western blot) [11]: overexpression of all RARs
